Measurements from patent US10959997B2, “Combined agent for cell therapy of corneal endothelial cell” (KYOTO PREFECTURAL PUBLIC UNIVERSITY CORPORATION, priority 2013, dated 2021).
Structures can show the parent of a compound that is named as a salt. Where two headings read alike, the source gives them in different places.

How the values were obtained:
type II myosin = details: enantiomer of blebbistatin; cited from earlier work
[1] = system: skeletal muscle myosin II; details: cited from earlier work
non-muscle myosin II = details: cited from earlier work
actin polymerization = details: cited from earlier work
[2] = system: cultured monkey corneal endothelial cells; experiment: Examination of number of adhering cells with CellTiter-Glo; type: cell-based, cynomolgus monkey
[3] = system: myosin light chain (MLC) phosphorylation; experiment: Western blot of Rho-ROCK pathway activity (phospho myosin light chain); type: cell-based, cynomolgus monkey
Procedure: DMEM (Gibco-Invitrogen) to which Y-27632 was added such that the final concentration would be 10 μM and cultured monkey corneal endothelial cells were seeded. Over time, i.e., 0, 1, 3, and 24 hours thereafter, proteins extracted with RIPA buffer were subjected to electrophoresis with 7.5% polyacrylamide. DMEM (Gibco-Invitrogen) was used as a control. The separated protein was transcribed onto a PVDF membrane (PALL LIFE SCIENCE, catalog number: EH-2222). Blocking procedure was carried out by incubating a Tris buffered saline (10 mM Tris-HCl, pH 7.4, 100 mM NaCl) supplemented with 0.1% (vol/vol) polyethylene sorbitan monolaurate (Nacalai Tesque, catalog number: 28353-85) (TBS-T) and 5% non-fat dry milk (CELL SIGNALING, catalog number: 9999) and the blotted membrane for one hour. The membrane was then immersed in TBS-T supplemented with antibodies against Phospho Myosin Light Chain 2 (Thr18/Ser19) (CELL SIGNALING, catalog number: 3674), Phospho FAK (Y397) (D20B1) Rabbit mAb (CELL SIGNALING, catalog number: 8556), Phospho Paxillin (Tyr118) Antibody (CELL SIGNALING, catalog number: 2541), GAPDH (14C10) Rabbit mAb (CELL SIGNALING, catalog number: 2118) and diluted 1000-fold, and reacted for 1 hour at room temperature. […]

[4] = system: focal adhesion kinase (FAK) phosphorylation; type: cell-based, cynomolgus monkey
paxillin phosphorylation = experiment: Western blot of adhesion-related molecules (phospho paxillin); type: cell-based, cynomolgus monkey
[5] = system: rabbit bullous keratopathy model; experiment: Transplantation of cultured corneal endothelial cells in combination with inhibitor, injected into the anterior chamber; type: in vivo; details: for state of the anterior ocular section after transplantation (pictures): day 3, day 7, day 14
Procedure: In primary culture of rabbit corneal endothelial cells, a Descemet's membrane including an endothelial cell layer was detached from a corneal tissue and 0.5 ml of Accutase (catalog number: AT104, Innovative Cell Technologies) was used for each eye, and incubated at 37° C. by using a water bath. After 20 minutes, a culture medium was added and pipetting was performed. The sample was centrifuged at 1200 rpm for 3 minutes to remove the supernatant. A culture medium was then added to a precipitated corneal endothelial cell mass for admixing. The entire amount was seeded on a 12-well plate coated with FNC Coating Mix (catalog No.: 0407; Athena Enzyme Systems, Baltimore, Md., USA). DMEM (catalog No.: 12320; Gibco-Invitrogen), to which 10% FBS, 1% Penicillin-Streptomycin Mixed Solution (catalog number: 26252-94; Nacalai Tesque), and 2 ng/ml basic fibroblast growth factor, catalog number: 13256-029; bFGF; Invitrogen) were added, was used as a culture medium.
A medium was exchanged every other day. Subculture was performed when 50 to 80% confluence was reached. With respect to the subculturing method, cells were washed with Ca^2+Mg^2+-free PBS (PBS−; Nissui Pharmaceutical Co., Ltd., Tokyo, Japan), and 0.05% Trypsin-EDTA (catalog No.: 25300-054; Invitrogen) was added and incubated at 37° C. for 3 minutes. Cells were detached and collected from the plate. After the cells were centrifuged at 1500 rpm for 3 minutes, a culture medium was added to make a cell suspension. Cells were seeded on a plate coated with FNC Coating Mix at a density of 1:2-3.
Rabbit corneal endothelial cells were detached with a soft tapered needle (Inami, M-563S) to make a bullous keratopathy model. Subsequently, 5.0×10^5 cultured rabbit corneal endothelial cells were suspended in 200 μl of Dulbecco's Modified Eagle Medium (DMEM) with blebbistatin adjusted to a final concentration of 10 μM. The suspension was injected into the anterior chamber and the corneal surface was maintained in a face-down position for three hours. A group injected with 5.0×10^5 rabbit corneal endothelial cells suspended into 200 μl of Dulbecco's Modified Eagle Medium (DMEM) with Y-27632 adjusted to a final concentration of 100 μM in the anterior chamber, a group subjected only to scraping off of corneal endothelial cells, and a group injected with 5.0×10^5 rabbit corneal endothelial cells suspended in a 200 μl of Dulbecco's Modified Eagle Medium (DMEM) into the anterior chamber were used as comparison groups.
A rabbit bullous keratopathy model eye with the corneal endothelium scraped off was injected with 5.0×10^5 cultured rabbit corneal endothelial cells suspended in 200 μl of Dulbecco's Modified Eagle Medium (DMEM) with blebbistatin adjusted to a final concentration of 1 μM and 3 μM into the anterior chamber as in Example 3. […]

## Cc1ccc2c(c1)C(=O)C1(O)CCN(c3ccccc3)C1=N2 (single isomer, unassigned; (+)) [(+) form]
Type II myosin
  effect as myosin II-specific inhibitor: does not

## CC(=O)C(C)=NO [BDM, 2,3-butanedione monoxime]
[1]
  action on skeletal muscle myosin II: has action on skeletal muscle myosin II
non-muscle myosin II
  inhibiting effect on non-muscle myosin II: does not have an inhibiting effect
Actin polymerization
  effect on actin polymerization: inhibiting actin polymerization

## C[C@@H](N)[C@H]1CC[C@H](C(=O)Nc2ccncc2)CC1 [Y-27632, (R)-(+)-trans-(4-pyridyl)-4-(1-aminoethyl)-dihydrochloride cyclohexanecarboxamide monohydrate]
[2]
  number of adhering cells: significantly increased
[3]; Y-27632 10 μM, 0, 1, 3 and 24 hours
  MLC phosphorylation: suppresses
[4]
  phosphorylation of FAK: phosphorylated at an early stage
Paxillin phosphorylation
  phosphorylation of paxillin: phosphorylated at an early stage
[5]; Y-27632 100 μM with 5.0×10^5 cells in 200 μl DMEM
  state of the anterior ocular section after transplantation (pictures): excellent
[5]; animal models with bullous keratopathy
  concentration at which efficacy is exhibited: 10 to 100 µM

## Cc1ccc2c(c1)C(=O)[C@]1(O)CCN(c3ccccc3)C1=N2 [blebbistatin, (S)-(−)-Blebbistatin]
[2]; blebbistatin 100 μM, three hours from seeding, in comparison to the control (DMEM)
  number of adhering cells: significantly increased
[3]; addition of blebbistatin, stated in the discussion
  MLC phosphorylation activity: suppression of the MLC phosphorylation activity
Paxillin phosphorylation; blebbistatin 100 μM, 0, 1, 3 and 24 hours
  phosphorylation of paxillin: phosphorylated at an early stage
[5]; blebbistatin 1 μM, 3 μM, 10 μM versus Y-27632 100 μM
  concentration needed for therapy compared with Y-27632: therapy was possible at a lower concentration relative to Y-27632
[5]; blebbistatin 10 μM with 5.0×10^5 cells in 200 μl DMEM
  state of the anterior ocular section after transplantation (pictures): excellent as with Y-27632
Type II myosin
  effect as myosin II-specific inhibitor: has an effect
